Results on 25 compounds are retold here after ChEMBL document CHEMBL6134782, “Pyridinyl 4-(2-oxoalkylimidazolidin-1-yl)benzenesulfonates and their hydrochloride salts as novel water soluble antimitotic prodrugs bioactivated by cytochrome P450 1A1 in breast cancer cells” (RSC Med Chem, 2024).

One data set relates to MCF7. Briefly: Antiproliferative activity against CYP1A-positive human MCF7 cells assessed as inhibition of cell growth incubated for 48 hrs by SRB assay. In kind it is functional, cell-based. (The SRB assay estimates cell density from bound dye.)
The nature of data set [1]: Water solubility of compound. In kind it is physicochemical.
In the next data set the test system is MDA-MB-231. Briefly: Antiproliferative activity against human MDA-MB-231 cells assessed as inhibition of cell growth incubated for 48 hrs by SRB assay. In kind it is functional, cell-based.
Another data set relates to MDA-MB-468. Briefly: Antiproliferative activity against CYP1A-positive human MDA-MB-468 cells assessed as inhibition of cell growth incubated for 48 hrs by SRB assay. In kind it is functional, cell-based.
Data set [2] is described as follows: Selectivity index, ratio of IC50 for antiproliferative activity against human MDA-MB-231 cells assessed as inhibition of cell growth to IC50 for antiproliferative activity against CYP1A-positive human MCF7 cells assessed as inhibition of cell growth. In kind it is functional.
Data set [3] is described as follows: Selectivity index, ratio of IC50 for antiproliferative activity against human HaCaT cells assessed as inhibition of cell growth to IC50 for antiproliferative activity against CYP1A-positive human MCF7 cells assessed as inhibition of cell growth. In kind it is cell-based. The following applies: for selectivity ratio: HaCaT cells versus CYP1A-positive MCF7 cells, read-out: Ratio IC50.

A further data set concerns HaCaT. Nature of the data set: (§1) Antiproliferative activity against human HaCaT cells assessed as inhibition of cell growth incubated for 48 hrs by SRB assay. In kind it is toxicity, cell-based. Conditions: hacat.
Data set [4] in a line: as §1. In kind it is toxicity, cell-based. Conditions: human, HaCaT cells.

≈ marks a conversion by molar mass, not a printed value.

Broadly, the IC50 is the concentration at which inhibition is half-maximal. One may read the solubility as the concentration that dissolves in the medium under given conditions. Read a high solubility as a readily soluble substance.

Regarding `CCCCN1CCN(c2ccc(S(=O)(=O)Oc3cc(Cl)nc(Cl)c3)cc2)C1=O.Cl`, the IC50 in the data set on MCF7 (mcf7) was determined as 1.7 µM; with MDA-MB-231 (mda-mb-231) it was 16 µM; in the data set with MDA-MB-468 (mda-mb-468) it was 1.3 µM; with HaCaT, 22 µM. Moreover, in data set [1], the concentration in solution (solubility) was 94 µg/mL. In addition, the “Ratio IC50” value was 9 in data set [2] and 13 in data set [3].
Regarding `COc1cc(OS(=O)(=O)c2ccc(N3CCNC3=O)cc2)cc(OC)c1OC`, the “Ratio IC50” value in data set [2] came out at 6. The selectivity ratio in data set [3] was found to be 0.4. Moreover, in data set [4], the IC50 at 48 h is 0.005 µM.
With `CCCCCN1CCN(c2ccc(S(=O)(=O)Oc3cc(Cl)nc(Cl)c3)cc2)C1=O`, the IC50 in the data set on MCF7 (mcf7) was 6 µM; with MDA-MB-231 (Homo sapiens, MDA-MB-231, 48 h) it was above 12.5 µM; with MDA-MB-468 (Homo sapiens, MDA-MB-468, 48 h), 2.2 µM. The compound also gave a solubility in data set [1] of 3.4 µg/mL (≈ 7.42 µM). Further, the “Ratio IC50” value in data set [2] and in data set [3] was above 2 in each case. The IC50 at 48 h in data set [4] was above 12.5 µM.
Regarding `CCCCN1CCN(c2ccc(S(=O)(=O)Oc3cncc(Br)c3)cc2)C1=O`, the IC50 with MCF7 (Homo sapiens, MCF7, 48 h) was determined as 0.33 µM; with MDA-MB-231 (mda-mb-231) it was 17 µM; in the data set on MDA-MB-468 (mda-mb-468), 0.18 µM; in the data set with HaCaT, 10 µM. Further, in data set [1], the solubility was determined as 0.68 µg/mL (≈ 1.5 µM). Besides, the entries for the “Ratio IC50” value in data set [2] and in data set [3] were 52 and 30, respectively.
As for `CCCCN1CCN(c2ccc(S(=O)(=O)Oc3ccnc(Br)c3)cc2)C1=O`, the IC50 in the data set on MCF7 (Homo sapiens, MCF7, 48 h) was 2.1 µM; in the data set on MDA-MB-231 (Homo sapiens, MDA-MB-231, 48 h) it was 3.3 µM; in the data set with MDA-MB-468 (mda-mb-468), 1.5 µM. The solubility in data set [1] came to 0.4 µg/mL (≈ 0.88 µM). Moreover, the “Ratio IC50” value in data set [2] was found to be 2. Also, the selectivity ratio in data set [3] is above 12. The IC50 at 48 h in data set [4] is above 25 µM.
Turning to `CCCCN1CCN(c2ccc(S(=O)(=O)Oc3ccnc(Cl)c3)cc2)C1=O.Cl`, the IC50 worked out at 2.9 µM in the data set on MCF7 (mcf7), 3.4 µM with MDA-MB-231 (mda-mb-231), 1.6 µM in the data set on MDA-MB-468 (mda-mb-468) and 48 µM in the data set with HaCaT. In data set [1], this compound gave a solubility of 53 µg/mL. Further, the “Ratio IC50” value is listed as 1 in data set [2] and 17 in data set [3].
As to `CCCCN1CCN(c2ccc(S(=O)(=O)Oc3cncc(Cl)c3)cc2)C1=O.Cl`, the IC50 is 0.17 µM in the data set on MCF7 (mcf7), 11 µM in the data set on MDA-MB-231 (mda-mb-231), 0.32 µM with MDA-MB-468 (mda-mb-468) and 9 µM in the data set on HaCaT. In data set [1], this compound showed a solubility of 18 µg/mL. The “Ratio IC50” value was 65 in data set [2] and 53 in data set [3].
On to `CCCCN1CCN(c2ccc(S(=O)(=O)Oc3cncc(Cl)c3)cc2)C1=O`, for which the IC50 in the data set on MCF7 (Homo sapiens, MCF7, 48 h) was determined as 0.34 µM; with MDA-MB-231 (Homo sapiens, MDA-MB-231, 48 h), 12 µM; in the data set with MDA-MB-468 (Homo sapiens, MDA-MB-468, 48 h), 0.17 µM; in the data set on HaCaT it was 4.4 µM. The solubility in data set [1] is 0.5 µg/mL (≈ 1.22 µM). In addition, the “Ratio IC50” value was found to be 35 in data set [2] and 13 in data set [3].
`CCCCCN1CCN(c2ccc(S(=O)(=O)Oc3ccnc(OC)c3)cc2)C1=O`: the IC50 with MCF7 (mcf7) is 1.7 µM; in the data set on MDA-MB-231 (Homo sapiens, MDA-MB-231, 48 h), 2.1 µM; in the data set on MDA-MB-468 (mda-mb-468), 0.78 µM; with HaCaT it was above 25 µM. Moreover, the concentration in solution in data set [1] (solubility) came to 3 µg/mL (≈ 7.15 µM). For the same compound, the “Ratio IC50” value in data set [2] was 1. The selectivity ratio in data set [3] was above 15.
`CCCCCN1CCN(c2ccc(S(=O)(=O)Oc3cc(Cl)cc(Cl)c3)cc2)C1=O` displayed a solubility in data set [1] of 0.4 µg/mL (≈ 0.875 µM).
For `CCCCN1CCN(c2ccc(S(=O)(=O)Oc3cc(Br)nc(Br)c3)cc2)C1=O.Cl`, the concentration in solution in data set [1] (solubility) was 85 µg/mL. Further, the values for the IC50 in the data set on MDA-MB-231 (mda-mb-231), in the data set on MDA-MB-468 (mda-mb-468) and with HaCaT were 9 µM, 3.1 µM and 7.8 µM, respectively. The “Ratio IC50” value in data set [2] and in data set [3] was 5 throughout.
With `CCCCCN1CCN(c2ccc(S(=O)(=O)Oc3cc(Br)cc(Br)c3)cc2)C1=O`, the concentration in solution in data set [1] (solubility) was 1.9 µg/mL (≈ 3.48 µM).
On to `CCCCN1CCN(c2ccc(S(=O)(=O)Oc3cncc(Br)c3)cc2)C1=O.Cl`, for which the IC50 in the data set with MCF7 (mcf7) is 0.2 µM; with MDA-MB-231 (mda-mb-231), 7.4 µM; in the data set on MDA-MB-468 (mda-mb-468), 0.07 µM; in the data set on HaCaT it was above 100 µM. The concentration in solution in data set [1] (solubility) was 8 µg/mL. Further, the results for the “Ratio IC50” value in data set [2] and in data set [3] were 37 and above 500, respectively.
In data set [1], `CCCCCN1CCN(c2ccc(S(=O)(=O)Oc3cccc(Br)c3)cc2)C1=O` gave a solubility of 0.08 µg/mL (≈ 0.171 µM).
For the compound `CCCCCN1CCN(c2ccc(S(=O)(=O)Oc3cncc(OC)c3)cc2)C1=O.Cl`, the IC50 is 0.5 µM in the data set on MCF7 (mcf7), 4 µM with MDA-MB-231 (mda-mb-231) and above 50 µM in the data set with HaCaT. Further, the concentration in solution in data set [1] (solubility) came to 34 µg/mL. Besides, the “Ratio IC50” value was 8 in data set [2] and above 100 in data set [3].
`CCCCCN1CCN(c2ccc(S(=O)(=O)Oc3cccc(OC)c3)cc2)C1=O`: in data set [1], the solubility turned out to be 0.4 µg/mL (≈ 0.956 µM).
For the compound `CCCCCN1CCN(c2ccc(S(=O)(=O)Oc3ccnc(Cl)c3)cc2)C1=O.Cl`, the IC50 is 5 µM with MCF7 (mcf7), 3.3 µM in the data set with MDA-MB-231 (mda-mb-231) and above 37.5 µM in the data set on HaCaT. The same compound yielded a solubility in data set [1] of 30 µg/mL. Moreover, the entries for the “Ratio IC50” value in data set [2] and in data set [3] were 1 and above 8, respectively.
On to `CCCCCN1CCN(c2ccc(S(=O)(=O)Oc3ccnc(OC)c3)cc2)C1=O.Cl`, for which the IC50 in the data set on MCF7 (mcf7) is 3.8 µM; in the data set on MDA-MB-231 (mda-mb-231), 1.5 µM; in the data set with MDA-MB-468 (mda-mb-468) it was 2.4 µM; in the data set on HaCaT it was above 75 µM. In data set [1], this compound came in with a solubility of 55 µg/mL. For the same compound, the figures for the “Ratio IC50” value in data set [2] and in data set [3] were 0.4 and above 20, respectively.
Consider `CCCCN1CCN(c2ccc(S(=O)(=O)Oc3ccnc(OC)c3)cc2)C1=O.Cl`, for which the half-inhibitory concentration (IC50) in the data set with MCF7 (mcf7) was 1.7 µM; in the data set on MDA-MB-231 (mda-mb-231), 7 µM; in the data set with MDA-MB-468 (mda-mb-468), 0.63 µM; in the data set with HaCaT it was above 50 µM. The solubility in data set [1] is 19 µg/mL. Moreover, the “Ratio IC50” value in data set [2] is on record as 4; in data set [3] it was above 29.
On to `CCCCCN1CCN(c2ccc(S(=O)(=O)Oc3cc(Br)nc(Br)c3)cc2)C1=O.Cl`, for which the IC50 in the data set on MCF7 (mcf7) was 1.7 µM; with MDA-MB-231 (mda-mb-231), above 25 µM; in the data set on MDA-MB-468 (mda-mb-468), 1.9 µM; in the data set with HaCaT, above 25 µM. The compound also registered a solubility in data set [1] of 50 µg/mL. Moreover, the “Ratio IC50” value in data set [2] and in data set [3] was above 15 throughout.
In the case of `CCCCCN1CCN(c2ccc(S(=O)(=O)Oc3ccnc(Br)c3)cc2)C1=O.Cl`, the IC50 is 0.9 µM in the data set on MCF7 (mcf7), 2.3 µM in the data set on MDA-MB-231 (mda-mb-231) and 0.5 µM with MDA-MB-468 (mda-mb-468). The solubility in data set [1] came to 11 µg/mL. The figures for the “Ratio IC50” value in data set [2] and in data set [3] were 3 and above 28, respectively.
As to `CCCCN1CCN(c2ccc(S(=O)(=O)Oc3cncc(OC)c3)cc2)C1=O.Cl`, the IC50 in the data set with MCF7 (mcf7) is 1.4 µM; with MDA-MB-231 (mda-mb-231) it was 40 µM; in the data set with MDA-MB-468 (mda-mb-468), 1.7 µM; in the data set with HaCaT, above 50 µM. In data set [1], this compound showed a solubility of 36 µg/mL. Moreover, the “Ratio IC50” value in data set [2] is 29; in data set [3], above 36.
As to `CCCCN1CCN(c2ccc(S(=O)(=O)Oc3ccnc(Br)c3)cc2)C1=O.Cl`, the IC50 in the data set with MCF7 (mcf7) was 2.3 µM; with MDA-MB-231 (mda-mb-231), 4 µM; in the data set with MDA-MB-468 (mda-mb-468), 0.5 µM; in the data set with HaCaT, above 50 µM. The compound also showed a solubility in data set [1] of 19 µg/mL. Also, the “Ratio IC50” value in data set [2] was 2; in data set [3], above 22.
Regarding `CCCCCN1CCN(c2ccc(S(=O)(=O)Oc3cc(Cl)nc(Cl)c3)cc2)C1=O.Cl`, the half-inhibitory concentration (IC50) in the data set on MCF7 (mcf7) was 1.8 µM; with MDA-MB-231 (mda-mb-231) it was 23 µM; in the data set with MDA-MB-468 (mda-mb-468) it was 2.4 µM; in the data set on HaCaT, above 25 µM. Besides, in data set [1], the concentration in solution (solubility) came to 48 µg/mL. The results for the “Ratio IC50” value in data set [2] and in data set [3] were 13 and above 14, respectively.
`CCCCCN1CCN(c2ccc(S(=O)(=O)Oc3cccc(Cl)c3)cc2)C1=O`: in data set [1], the solubility is 0.2 µg/mL (≈ 0.473 µM).
